# Measurements as given in publication PMC4035740 (The Journal of General Physiology, 2014).
# Positions count from the first letter of the chain named. Like-named read-outs stand apart in the source and are kept apart here.
# How the values were obtained:
# Type in all cases: cell-based
# [1] = target: T1, rat P2X2 tandem trimer D315A–D315A–WT (Rattus norvegicus, UniProt P49653, D315A); conditions: at −160 mV
# T1 sequence (P49653 1-472 D315A) 1: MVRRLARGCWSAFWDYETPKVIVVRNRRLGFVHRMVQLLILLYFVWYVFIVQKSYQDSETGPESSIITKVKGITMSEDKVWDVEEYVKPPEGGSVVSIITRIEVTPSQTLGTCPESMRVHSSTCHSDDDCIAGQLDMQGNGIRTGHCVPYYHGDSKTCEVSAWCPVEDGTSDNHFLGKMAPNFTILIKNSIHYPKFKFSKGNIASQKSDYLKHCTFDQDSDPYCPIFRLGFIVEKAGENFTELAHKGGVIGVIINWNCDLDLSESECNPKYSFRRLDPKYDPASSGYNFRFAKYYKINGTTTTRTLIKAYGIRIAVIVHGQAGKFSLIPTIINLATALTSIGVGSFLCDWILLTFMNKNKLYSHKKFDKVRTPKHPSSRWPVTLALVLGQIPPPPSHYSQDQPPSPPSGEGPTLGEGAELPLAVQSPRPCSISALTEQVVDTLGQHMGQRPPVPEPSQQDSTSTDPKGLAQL
# T1 sequence (P49653 1-472 D315A) 2: T1 sequence (P49653 1-472 D315A) 1
# T1 sequence (P49653 1-472): T1 sequence (P49653 1-472 D315A) 1 with A315D
# [2] = target: T2, rat P2X2 WT (Rattus norvegicus, UniProt P49653); experiment: ATP dose–response, two-electrode voltage clamp in Xenopus oocytes, WT
# T2 sequence (P49653 1-472): T1 sequence (P49653 1-472 D315A) 1 with A315D
# [3] = target: T3, rat P2X2 tandem trimer T339S–T339S–T339S (Rattus norvegicus, UniProt P49653, T339S)
# T3 sequence (P49653 1-472 T339S) 1: T1 sequence (P49653 1-472 D315A) 1 with A315D, T339S
# T3 sequence (P49653 1-472 T339S) 2: T1 sequence (P49653 1-472 D315A) 1 with A315D, T339S
# T3 sequence (P49653 1-472 T339S) 3: T1 sequence (P49653 1-472 D315A) 1 with A315D, T339S
# [4] = target: T4, rat P2X2 tandem trimer WT–WT–WT (Rattus norvegicus, UniProt P49653); experiment: ATP dose–response, two-electrode voltage clamp in Xenopus oocytes, WT–WT–WT
# T4 sequence (P49653 1-472) 1: T1 sequence (P49653 1-472 D315A) 1 with A315D
# T4 sequence (P49653 1-472) 2: T1 sequence (P49653 1-472 D315A) 1 with A315D
# T4 sequence (P49653 1-472) 3: T1 sequence (P49653 1-472 D315A) 1 with A315D
# [5] = target: T5, rat P2X2 tandem trimer WT–WT–K308A (Rattus norvegicus, UniProt P49653, K308A); experiment: ATP dose–response, two-electrode voltage clamp in Xenopus oocytes, WT–WT–K308A
# T5 sequence (P49653 1-472) 1: T1 sequence (P49653 1-472 D315A) 1 with A315D
# T5 sequence (P49653 1-472) 2: T1 sequence (P49653 1-472 D315A) 1 with A315D
# T5 sequence (P49653 1-472 K308A): T1 sequence (P49653 1-472 D315A) 1 with K308A, A315D
# [6] = target: T6, rat P2X2 K308A (Rattus norvegicus, UniProt P49653, K308A); experiment: ATP activation of the K308A mutant channel; conditions: K308A mutation, very high concentrations of ATP (>3 mM)
# T6 sequence (P49653 1-472 K308A): T1 sequence (P49653 1-472 D315A) 1 with K308A, A315D
# [7] = target: T7, rat P2X2 tandem trimer WT–T339S–WT (Rattus norvegicus, UniProt P49653, T339S); experiment: ATP dose–response, two-electrode voltage clamp in Xenopus oocytes, WT–T339S–WT
# T7 sequence (P49653 1-472) 1: T1 sequence (P49653 1-472 D315A) 1 with A315D
# T7 sequence (P49653 1-472 T339S): T1 sequence (P49653 1-472 D315A) 1 with A315D, T339S
# T7 sequence (P49653 1-472) 3: T1 sequence (P49653 1-472 D315A) 1 with A315D
# [8] = target: T8, rat P2X2 tandem trimer D315A–WT–WT (Rattus norvegicus, UniProt P49653, D315A); experiment: ATP dose–response, two-electrode voltage clamp in Xenopus oocytes, D315A–WT–WT
# T8 sequence (P49653 1-472 D315A): T1 sequence (P49653 1-472 D315A) 1
# T8 sequence (P49653 1-472) 2: T1 sequence (P49653 1-472 D315A) 1 with A315D
# T8 sequence (P49653 1-472) 3: T1 sequence (P49653 1-472 D315A) 1 with A315D
# [9] = target: T9, rat P2X2 tandem trimer K308A&K69A–WT–WT (Rattus norvegicus, UniProt P49653, K308A/K69A); experiment: Hetero-assembly test, activation by ATP, K308A&K69A–WT–WT; conditions: 1 mM [ATP], days 1 and 2 after RNA injection
# T9 sequence (P49653 1-472 K69A/K308A): T1 sequence (P49653 1-472 D315A) 1 with K69A, K308A, A315D
# T9 sequence (P49653 1-472) 2: T1 sequence (P49653 1-472 D315A) 1 with A315D
# T9 sequence (P49653 1-472) 3: T1 sequence (P49653 1-472 D315A) 1 with A315D
# [10] = target: T10, rat P2X2 tandem trimer K308A–WT–WT (Rattus norvegicus, UniProt P49653, K308A); experiment: ATP dose–response, two-electrode voltage clamp in Xenopus oocytes, K308A–WT–WT
# T10 sequence (P49653 1-472 K308A): T1 sequence (P49653 1-472 D315A) 1 with K308A, A315D
# T10 sequence (P49653 1-472) 2: T1 sequence (P49653 1-472 D315A) 1 with A315D
# T10 sequence (P49653 1-472) 3: T1 sequence (P49653 1-472 D315A) 1 with A315D
# [11] = target: T11, rat P2X2 tandem trimer WT–K308A–WT (Rattus norvegicus, UniProt P49653, K308A); experiment: ATP dose–response, two-electrode voltage clamp in Xenopus oocytes, WT–K308A–WT
# T11 sequence (P49653 1-472) 1: T1 sequence (P49653 1-472 D315A) 1 with A315D
# T11 sequence (P49653 1-472 K308A): T1 sequence (P49653 1-472 D315A) 1 with K308A, A315D
# T11 sequence (P49653 1-472) 3: T1 sequence (P49653 1-472 D315A) 1 with A315D
# [12] = target: T12, rat P2X2 D315A (Rattus norvegicus, UniProt P49653, D315A); experiment: ATP dose–response, two-electrode voltage clamp in Xenopus oocytes, D315A; conditions: at −160 mV
# T12 sequence (P49653 1-472 D315A): T1 sequence (P49653 1-472 D315A) 1
# [13] = target: T13, rat P2X2 tandem trimer WT–WT–K308A&K69A (Rattus norvegicus, UniProt P49653, K308A/K69A); experiment: Hetero-assembly test, activation by ATP, WT–WT–K308A&K69A; conditions: 1 mM [ATP], days 1 and 2 after RNA injection
# T13 sequence (P49653 1-472) 1: T1 sequence (P49653 1-472 D315A) 1 with A315D
# T13 sequence (P49653 1-472) 2: T1 sequence (P49653 1-472 D315A) 1 with A315D
# T13 sequence (P49653 1-472 K69A/K308A): T1 sequence (P49653 1-472 D315A) 1 with K69A, K308A, A315D
# [14] = target: T14, rat P2X2 tandem trimer WT–K308A&K69A–WT (Rattus norvegicus, UniProt P49653, K308A/K69A); experiment: Hetero-assembly test, activation by ATP, WT–K308A&K69A–WT; conditions: 1 mM [ATP], days 1 and 2 after RNA injection
# T14 sequence (P49653 1-472) 1: T1 sequence (P49653 1-472 D315A) 1 with A315D
# T14 sequence (P49653 1-472 K69A/K308A): T1 sequence (P49653 1-472 D315A) 1 with K69A, K308A, A315D
# T14 sequence (P49653 1-472) 3: T1 sequence (P49653 1-472 D315A) 1 with A315D
# [15] = target: T15, rat P2X2 tandem trimer D315A–D315A–D315A (Rattus norvegicus, UniProt P49653, D315A); conditions: at −160 mV
# T15 sequence (P49653 1-472 D315A) 1: T1 sequence (P49653 1-472 D315A) 1
# T15 sequence (P49653 1-472 D315A) 2: T1 sequence (P49653 1-472 D315A) 1
# T15 sequence (P49653 1-472 D315A) 3: T1 sequence (P49653 1-472 D315A) 1
# [16] = target: T16, rat P2X2 tandem trimer WT–T339S–T339S (Rattus norvegicus, UniProt P49653, T339S)
# T16 sequence (P49653 1-472): T1 sequence (P49653 1-472 D315A) 1 with A315D
# T16 sequence (P49653 1-472 T339S) 2: T1 sequence (P49653 1-472 D315A) 1 with A315D, T339S
# T16 sequence (P49653 1-472 T339S) 3: T1 sequence (P49653 1-472 D315A) 1 with A315D, T339S
smiles,measurement,setting,value
"Nc1ncnc2c1ncn2[C@@H]1O[C@H](COP(=O)(O)OP(=O)(O)OP(=O)(O)O)[C@@H](O)[C@H]1O [ATP, adenosine triphosphate]",EC50,"[1]; EC50 (1), first phase",3.15 ± 0.9 µM
same,EC50,"[1]; EC50 (2), second phase",794 ± 12 µM
same,EC50,[2],14.5 ± 1.2 µM
same,Hill coefficient,"[2]; WT, at −160 mV, Xenopus oocytes, mean ± SEM",1.7 ± 0.2
same,EC50,[3],2.4 ± 0.4 µM
same,Hill,"[3]; T339S–T339S–T339S, at −160 mV",1.5 ± 0.3
same,EC50,[4],19.1 ± 2 µM
same,EC50,[5],33.3 ± 1.65 µM
same,Hill coefficient,"[5]; WT–WT–K308A, at −160 mV, mean ± SEM",1.6 ± 1.4
same,channel response to ATP,[6],unresponsive
same,EC50,[7],12.2 ± 1.2 µM
same,Hill,"[7]; WT–T339S–WT, at −160 mV",1.5 ± 0.9
same,EC50,[8],6.02 ± 1.1 µM
same,Hill,"[8]; D315A–WT–WT, at −160 mV",1.4 ± 0.1
same,activation in response to ATP,[9],did not show any prominent activation
same,EC50,[10],42.3 ± 2.2 µM
same,Hill coefficient,"[10]; K308A–WT–WT, at −160 mV, mean ± SEM",1.7 ± 0.18
same,EC50,[11],22.9 ± 1.8 µM
same,EC50,"[12]; EC50 (1), first phase of biphasic dose–response",1.2 ± 0.6 µM
same,EC50,"[12]; EC50 (2), second phase of biphasic dose–response",89.1 ± 1.48 µM
same,Hill (1),[12]; first phase,2.4 ± 0.7
same,activation in response to ATP,[13],did not show any prominent activation
same,activation in response to ATP,[14],did not show any prominent activation
same,EC50,"[15]; EC50 (1), first phase",1.5 ± 0.8 µM
same,EC50,"[15]; EC50 (2), second phase",130 ± 5 µM
same,Hill (1),[15]; first phase,3.7 ± 0.6
same,EC50,[16],6 ± 0.4 µM
same,Hill,"[16]; WT–T339S–T339S, at −160 mV",1.5 ± 0.2
